Laboratory results: US9738902B2, “Modified PYR/PYL receptors activated by ligands” (priority 2013, dated 2017)

Legend:
Assay in all cases: Y2H Pocket Library Screen (HAB1, X-gal)
Type in all cases: cell-based
[1] = target: T1, PYR1 K59R A160C (Arabidopsis thaliana, UniProt O49686, A160C/K59R)
T1 construct: expressed in transfected cells; host or cells: S. cerevisiae Y190
In short: (§1)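 Mutant PYR1 variants are screened in yeast two-hybrid against HAB1, with 100 μM compound in –Leu/–Trp dextrose agar; responsiveness is judged by X-gal staining after 2 days at 30° C.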

[2] = target: T2, PYR1 K59R A160S (Arabidopsis thaliana, UniProt O49686, A160S/K59R)
T2 construct: expressed in transfected cells; host or cells: S. cerevisiae Y190
In short: as §1

[3] = target: T3, PYR1 K59R A160Y (Arabidopsis thaliana, UniProt O49686, A160Y/K59R)
T3 construct: expressed in transfected cells; host or cells: S. cerevisiae Y190
In short: as §1

[4] = target: T4, PYR1 K59R E141H (Arabidopsis thaliana, UniProt O49686, E141H/K59R)
T4 construct: expressed in transfected cells; host or cells: S. cerevisiae Y190 two-hybrid reporter strain
In short: as §1

[5] = target: T5, PYR1 K59R E141Q (Arabidopsis thaliana, UniProt O49686, E141Q/K59R)
T5 construct: expressed in transfected cells; host or cells: S. cerevisiae Y190 two-hybrid reporter strain
In short: as §1

[6] = target: T6, PYR1 K59R M158G (Arabidopsis thaliana, UniProt O49686, K59R/M158G)
T6 construct: expressed in transfected cells; host or cells: S. cerevisiae Y190 two-hybrid reporter strain
In short: as §1

[7] = target: T7, PYR1 K59R M158I (Arabidopsis thaliana, UniProt O49686, K59R/M158I)
T7 construct: expressed in transfected cells; host or cells: S. cerevisiae Y190 two-hybrid reporter strain
In short: as §1

[8] = target: T8, PYR1 K59R M158L (Arabidopsis thaliana, UniProt O49686, K59R/M158L)
T8 construct: expressed in transfected cells; host or cells: S. cerevisiae Y190 two-hybrid reporter strain
In short: as §1

[9] = target: T9, PYR1 K59R M158S (Arabidopsis thaliana, UniProt O49686, K59R/M158S)
T9 construct: expressed in transfected cells; host or cells: S. cerevisiae Y190 two-hybrid reporter strain
In short: as §1

[10] = target: T10, PYR1 K59R M158T (Arabidopsis thaliana, UniProt O49686, K59R/M158T)
T10 construct: expressed in transfected cells; host or cells: S. cerevisiae Y190 two-hybrid reporter strain
In short: as §1

[11] = target: T11, PYR1 K59R N167S (Arabidopsis thaliana, UniProt O49686, K59R/N167S)
T11 construct: expressed in transfected cells; host or cells: S. cerevisiae Y190 two-hybrid reporter strain
In short: as §1

[12] = target: T12, PYR1 K59R T162W (Arabidopsis thaliana, UniProt O49686, K59R/T162W)
T12 construct: expressed in transfected cells; host or cells: S. cerevisiae Y190
In short: as §1

[13] = target: T13, PYR1 K59R V164H (Arabidopsis thaliana, UniProt O49686, K59R/V164H)
T13 construct: expressed in transfected cells; host or cells: S. cerevisiae Y190
In short: as §1

[14] = target: T14, PYR1 K59R V164Q (Arabidopsis thaliana, UniProt O49686, K59R/V164Q)
T14 construct: expressed in transfected cells; host or cells: S. cerevisiae Y190 two-hybrid reporter strain
In short: as §1

[15] = target: T15, PYR1 K59R V164S (Arabidopsis thaliana, UniProt O49686, K59R/V164S)
T15 construct: expressed in transfected cells; host or cells: S. cerevisiae Y190 two-hybrid reporter strain
In short: as §1

[16] = target: T16, PYR1 K59R F108G (Arabidopsis thaliana, UniProt O49686, F108G/K59R)
T16 construct: expressed in transfected cells; host or cells: S. cerevisiae Y190 yeast two-hybrid reporter strain
In short: as §1

[17] = target: T17, PYR1 K59R F108L (Arabidopsis thaliana, UniProt O49686, F108L/K59R)
T17 construct: expressed in transfected cells; host or cells: S. cerevisiae Y190 yeast two-hybrid reporter strain
In short: as §1

[18] = target: T18, PYR1 K59R F108V (Arabidopsis thaliana, UniProt O49686, F108V/K59R)
T18 construct: expressed in transfected cells; host or cells: S. cerevisiae Y190 yeast two-hybrid reporter strain
In short: as §1

[19] = target: T19, PYR1 K59R F159A (Arabidopsis thaliana, UniProt O49686, F159A/K59R)
T19 construct: expressed in transfected cells; host or cells: S. cerevisiae Y190 two-hybrid reporter strain
In short: as §1

[20] = target: T20, PYR1 K59R F159M (Arabidopsis thaliana, UniProt O49686, F159M/K59R)
T20 construct: expressed in transfected cells; host or cells: S. cerevisiae Y190
In short: as §1

[21] = target: T21, PYR1 K59R F159T (Arabidopsis thaliana, UniProt O49686, F159T/K59R)
T21 construct: expressed in transfected cells; host or cells: S. cerevisiae Y190
In short: as §1

Measured: Threshold

T9 sequence (O49686 whole entry K59R/M158S): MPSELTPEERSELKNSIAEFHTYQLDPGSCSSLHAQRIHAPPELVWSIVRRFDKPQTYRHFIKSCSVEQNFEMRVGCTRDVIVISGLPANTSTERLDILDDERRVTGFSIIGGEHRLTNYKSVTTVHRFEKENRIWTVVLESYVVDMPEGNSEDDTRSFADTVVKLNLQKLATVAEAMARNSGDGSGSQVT
T9 sequence (Q9CAJ0 23-511 partner): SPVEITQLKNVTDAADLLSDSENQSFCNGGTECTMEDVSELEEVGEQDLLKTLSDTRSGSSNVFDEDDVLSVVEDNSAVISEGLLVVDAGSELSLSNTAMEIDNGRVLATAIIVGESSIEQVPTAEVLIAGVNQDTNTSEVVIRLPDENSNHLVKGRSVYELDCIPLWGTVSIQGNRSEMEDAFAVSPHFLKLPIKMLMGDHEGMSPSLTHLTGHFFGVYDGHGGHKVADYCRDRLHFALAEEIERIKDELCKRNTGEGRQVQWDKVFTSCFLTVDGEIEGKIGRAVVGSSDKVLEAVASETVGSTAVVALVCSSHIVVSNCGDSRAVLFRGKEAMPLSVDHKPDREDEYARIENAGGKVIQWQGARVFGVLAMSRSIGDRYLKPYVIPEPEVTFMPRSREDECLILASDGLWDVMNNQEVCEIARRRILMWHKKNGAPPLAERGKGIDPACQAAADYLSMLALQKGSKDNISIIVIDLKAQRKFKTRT
T3 sequence (O49686 whole entry K59R/A160Y): as the sequence (O49686 whole entry K59R/M158S) above, with S158M, A160Y counted along it
T3 sequence (Q9CAJ0 23-511 partner): as the sequence (Q9CAJ0 23-511 partner) above
T15 sequence (O49686 whole entry K59R/V164S): as the sequence (O49686 whole entry K59R/M158S) above, with S158M, V164S counted along it
T15 sequence (Q9CAJ0 23-511 partner): as the sequence (Q9CAJ0 23-511 partner) above
T8 sequence (O49686 whole entry K59R/M158L): as the sequence (O49686 whole entry K59R/M158S) above, with S158L counted along it
T8 sequence (Q9CAJ0 23-511 partner): as the sequence (Q9CAJ0 23-511 partner) above
T7 sequence (O49686 whole entry K59R/M158I): as the sequence (O49686 whole entry K59R/M158S) above, with S158I counted along it
T7 sequence (Q9CAJ0 23-511, further chain): as the sequence (Q9CAJ0 23-511 partner) above
T12 sequence (O49686 whole entry K59R/T162W): as the sequence (O49686 whole entry K59R/M158S) above, with S158M, T162W counted along it
T12 sequence (Q9CAJ0 23-511, further chain): as the sequence (Q9CAJ0 23-511 partner) above
T18 sequence (O49686 whole entry K59R/F108V): as the sequence (O49686 whole entry K59R/M158S) above, with F108V, S158M counted along it
T18 sequence (Q9CAJ0 23-511 partner): as the sequence (Q9CAJ0 23-511 partner) above
T16 sequence (O49686 whole entry K59R/F108G): as the sequence (O49686 whole entry K59R/M158S) above, with F108G, S158M counted along it
T16 sequence (Q9CAJ0 23-511 partner): as the sequence (Q9CAJ0 23-511 partner) above
T20 sequence (O49686 whole entry K59R/F159M): as the sequence (O49686 whole entry K59R/M158S) above, with S158M, F159M counted along it
T20 sequence (Q9CAJ0 23-511, further chain): as the sequence (Q9CAJ0 23-511 partner) above
T5 sequence (O49686 whole entry K59R/E141Q): as the sequence (O49686 whole entry K59R/M158S) above, with E141Q, S158M counted along it
T5 sequence (Q9CAJ0 23-511 partner): as the sequence (Q9CAJ0 23-511 partner) above
T1 sequence (O49686 whole entry K59R/A160C): as the sequence (O49686 whole entry K59R/M158S) above, with S158M, A160C counted along it
T1 sequence (Q9CAJ0 23-511 partner): as the sequence (Q9CAJ0 23-511 partner) above
T13 sequence (O49686 whole entry K59R/V164H): as the sequence (O49686 whole entry K59R/M158S) above, with S158M, V164H counted along it
T13 sequence (Q9CAJ0 23-511 partner): as the sequence (Q9CAJ0 23-511 partner) above
T2 sequence (O49686 whole entry K59R/A160S): as the sequence (O49686 whole entry K59R/M158S) above, with S158M, A160S counted along it
T2 sequence (Q9CAJ0 23-511 partner): as the sequence (Q9CAJ0 23-511 partner) above
T17 sequence (O49686 whole entry K59R/F108L): as the sequence (O49686 whole entry K59R/M158S) above, with F108L, S158M counted along it
T17 sequence (Q9CAJ0 23-511 partner): as the sequence (Q9CAJ0 23-511 partner) above
T6 sequence (O49686 whole entry K59R/M158G): as the sequence (O49686 whole entry K59R/M158S) above, with S158G counted along it
T6 sequence (Q9CAJ0 23-511 partner): as the sequence (Q9CAJ0 23-511 partner) above
T14 sequence (O49686 whole entry K59R/V164Q): as the sequence (O49686 whole entry K59R/M158S) above, with S158M, V164Q counted along it
T14 sequence (Q9CAJ0 23-511 partner): as the sequence (Q9CAJ0 23-511 partner) above
T11 sequence (O49686 whole entry K59R/N167S): as the sequence (O49686 whole entry K59R/M158S) above, with S158M, N167S counted along it
T11 sequence (Q9CAJ0 23-511 partner): as the sequence (Q9CAJ0 23-511 partner) above
T10 sequence (Q9CAJ0 23-511): as the sequence (Q9CAJ0 23-511 partner) above
T10 sequence (O49686 whole entry K59R/M158T): as the sequence (O49686 whole entry K59R/M158S) above, with S158T counted along it
T21 sequence (Q9CAJ0 23-511): as the sequence (Q9CAJ0 23-511 partner) above
T21 sequence (O49686 whole entry K59R/F159T): as the sequence (O49686 whole entry K59R/M158S) above, with S158M, F159T counted along it
T19 sequence (Q9CAJ0 23-511): as the sequence (Q9CAJ0 23-511 partner) above
T19 sequence (O49686 whole entry K59R/F159A): as the sequence (O49686 whole entry K59R/M158S) above, with S158M, F159A counted along it
T4 sequence (Q9CAJ0 23-511): as the sequence (Q9CAJ0 23-511 partner) above
T4 sequence (O49686 whole entry K59R/E141H): as the sequence (O49686 whole entry K59R/M158S) above, with E141H, S158M counted along it

N#Cc1c(Cl)cccc1Cl [Dichlobenil, dichlobenil]
not listed: [16] | [17] | [18] | [19] | [20] | [21]
100 µM: all other assays above

C#CCOc1ccc(CCNC(=O)C(OCC#C)c2ccc(Cl)cc2)cc1OC (stereo not drawn) [Mandipropamid, mandipropamid]
100 µM: [16] | [17] | [18] | [19] | [20] | [21]
